PMC4281356, “Uptake of the antisecretory factor peptide AF-16 in rat blood and cerebrospinal fluid and effects on elevated intracranial pressure” (Acta Neurochirurgica, 2014)
Values joined by “and” are separate entries in the source; they are usually repeats but may differ in a detail not shown here. Equal entries are not always repeated. Residues, ends and D or L forms follow the SMILES beside them.

How the values were obtained:
[1] = AF-16 concentration in CSF after intranasal or i.v. administration (estimated from radioactivity of 14C-AF-16); assay type: in vivo, rat; conditions: for Concentration of AF-16 in CSF: estimated from 14C radioactivity, mean ± SEM
Method: (§1) The test protocol was approved by the Regional Animal Experiments Ethical Committee and performed in accordance with guidelines for animal experiments (EC Directive 86/609/EEC). Male Sprague–Dawley rats, 180 ± 20 g body weight (Nova-SCB, Sollentuna, Sweden) were used. The rats were allowed a week for general adaptation in their cages before any form of experimental procedure was performed. All rats had free access to water and pelleted food during the whole experimental period. The temperature and air ventilation in the animal quarters were monitored according to standard procedures.
(§2) The operation procedure started with general anaesthesia via inhalation of Isoflurane (4 % induction, 1.5–2 % maintenance in air), after which the anaesthetised rat was positioned on the abdomen on a heating pad. The body temperature was monitored via a rectal thermo-coupled probe, and a heated blanket was placed underneath the rat in order to keep the temperature at 37 °C. The head was shaved and the skin washed with 70 % alcohol, followed by a subcutaneous injection of Marcaine. A 3– to 4-cm-long midline incision was made through the skin and fascia on the skull vault. The skull bone was freed from adherent connective tissue and a copper rod (144 g) with a tip diameter of 4 mm was immersed in liquid nitrogen and then applied to the right parietal bone for 90 s. […] The resulting lesion volume was calculated after termination of the experiments (see below). Uninjured rats were used as controls.
(§3) Rats were anaesthetised with Isoflurane 24 h after the cryogenic brain injury. The rats were given a single dose of 25 μl of AF-16 (2,000 μg/ml in phosphate buffered saline, PBS) or ^14C-AF-16 in each nostril and were then placed on their backs to make sure the AF-16 solution was absorbed appropriately. After 5–8 min they had recovered from anaesthesia, were fully awake and moved freely in the cage. Control, injured rats received the same volume of vehicle (PBS) only. ICP recordings for statistical calculations were collected for a 20-min-long period, starting after the animals were fully awake and the ICP values were stable and back to pre-anaesthesia levels.
(§4) The collection of blood and CSF was done in a separate set of experiments. ^14C-Labelled or unlabelled AF-16 was given by intranasal (see above) or i.v. administration via the penis vein (25 μl in a volume of 0.5 ml). For measurement of blood concentration of AF-16 the heart was punctured from the right thoracic cavity with an O.D. 1.22/60 mm injection needle. When 10–12 ml of blood had been collected, the thorax was opened and the rats were terminated by removing the heart. Immediately after termination, the rats were placed on the abdomen. For measurement of CSF levels of AF-16 the dura over cisterna magna was micro-surgically exposed by dissecting the neck muscles laterally, a procedure which uncovers the midline. The dura was subsequently punctured by a Neoflon i.v. cannula, outer diameter 0.6 mm, length 19 mm. After removing the needle from the cannula, 50–100 μl of CSF could be aspired without being contaminated with blood.
(§5) A Bachem AF-16 Enzyme Immunoassay kit (item S-1403) was used. Heparin-treated blood samples were mixed with an equal volume of Alsevers citrate solution (glucose, 0.1 M, sodium citrate 2-hydrate, 0.03 M, sodium chloride, 0.07 M). The blood samples were stored frozen for up to 1 month at −20 °C. The laboratory procedure followed Protocol III in the Bachem kit manual, but some critical points should be emphasised. […]

[2] = AF-16 concentration in plasma after intranasal or i.v. administration (Bachem AF-16 Enzyme Immunoassay); assay type: in vivo, rat; conditions: for Concentration of AF-16 in plasma: experimental rats (cryogenic brain injury); for Concentration of AF-16 in plasma / level at 0.5 h: sample 30 min after dosing, enzyme immunoassay, mean ± SEM; for level at 0.5 h: male, Sprague-Dawley, rat, plasma, control (uninjured) rats
Method: as §1, §2, §3, §4
as §5, with “emphasised. The standard AF-16 was dissolved and diluted in normal blood plasma; the standards S1-S6 (0.2–200 ng/ml, corresponding to 0.114–114 nM) and normal plasma S0 were distributed into smaller aliquots (e.g. 200 μl) and frozen at −20 °C until use. The standard is not stable in buffered saline at these concentrations.” for “emphasised.”

[3] = Side effects of AF-16 treatment in animals; assay type: in vivo; conditions: experimental conditions in animals
[4] = Autoradiography of 14C-AF-16 distribution in the brain after intranasal administration; assay type: in vivo, rat; conditions: control uninjured rats (n = 10), one intranasal dose, 30 min, 10 μm cryosections, X-ray film
Method: The distribution of ^14C-AF-16 in the brain after intranasal administration was investigated in a separate set of experiments. Control, uninjured rats (n = 10) received one intranasal dose of ^14C-AF-16. Thirty minutes later the rats were terminated and the brains were dissected out as described above. Frontal slices were cut, about 3 mm thick, immersed in 10 % sucrose in PBS overnight and then frozen in liquid nitrogen. Cryosections, cut at 10 μm, were prepared, air dried and exposed to Biomax AR autoradiography film (Kodak).

Decrease of AF-16 in CSF between 15 and 30 min ([1]; normal rats, intranasal 0.3 μmol/kg) | Change of plasma level between 15 and 30 min ([2]; normal rats, intranasal 0.3 μmol/kg, p < 0.03) | Compound | Concentration of AF-16 in CSF ([1]; control (uninjured) rats, i.v., CSF from cisterna magna 30 min after dosing, n = 6) | Concentration of AF-16 in CSF ([1]; control (uninjured) rats, intranasal, CSF 30 min after dosing, n = 9) | Concentration of AF-16 in CSF ([1]; experimental rats (cryogenic brain injury), i.v., CSF from cisterna magna 30 min after dosing, n = 7) | Concentration of AF-16 in CSF ([1]; experimental rats (cryogenic brain injury), intranasal, CSF 30 min after dosing, n = 9, p = 0.01 vs control) | Concentration of AF-16 in plasma relative to CSF ([2]; control and injured rats, 30 min after intranasal or i.v. administration) | Concentration of AF-16 in plasma ([2]; i.v. via penis vein (25 μl in 0.5 ml), n = 7) | Concentration of AF-16 in plasma ([2]; intranasal (25 μl of 2,000 μg/ml in PBS in each nostril), n = 9) | level at 0.5 h ([2]; inhaled or intranasal, 100 ug per rat, intranasal (25 μl of 2,000 μg/ml in PBS in each nostril), n = 9) | level at 0.5 h ([2]; iv, 25 ul in a volume of 0.5 ml, i.v. via penis vein (25 μl in 0.5 ml), n = 7) | Concentration of AF-16 in plasma relative to CSF ([2]; normal rats, intranasal 0.3 μmol/kg in 25 μl, 15 and 30 min after deposition) | Side effects of treatment [3] | Distribution in the brain by autoradiography [4]
not statistically significant | decreased significantly | CC(C)C[C@H](NC(=O)CNC(=O)[C@@H](NC(=O)[C@H](CC(N)=O)NC(=O)[C@H](CC(N)=O)NC(=O)[C@H](CCC(=O)O)NC(=O)[C@@H]1CCCN1C(=O)[C@H](CC(N)=O)NC(=O)[C@H](CO)NC(=O)[C@H](CCCNC(=N)N)NC(=O)[C@@H](NC(=O)[C@H](CCCCN)NC(=O)[C@H](CO)NC(=O)[C@H](Cc1c[nH]cn1)NC(=O)[C@H](CS)NC(=O)[C@@H](N)C(C)C)[C@@H](C)O)C(C)C)C(=O)O [AF-16] (H-VCHSKTRSNPENNVGL-OH) | 1.1 ± 0 ng/mL | 0.6 ng/mL and 0.6 ± 0.1 ng/mL | 1.1 ± 0.1 ng/mL | 1.3 ng/mL and 1.3 ± 0.2 ng/mL | about ten-times higher in plasma than in CSF | 14.5 ± 0.9 ng/mL | 8.7 ± 0.5 ng/mL | 7.8 ± 0.7 ng/mL | 14.7 ± 0.6 ng/mL | about ten-times higher in plasma than in CSF | No side effects | –
– | – | VCHSKTRSNPENNVGL [^14C-AF-16] | – | – | – | – | – | – | – | – | – | – | – | detected in the brain ventricles/choroid plexus
